Where “and” joins values, the source holds several entries; their conditions need not be identical. Identical values can stand only once. Marks after values point to notes of the source that are not given here.
Legend:
Format in all cases: in vivo, Balb C mice
[1] = tested on: collagen antibody-induced arthritis; assay: Mouse CAIA: hind paw / footpad volume (swelling, disease burden); set-up: Mean Disease Burden / Total Disease Burden (AUC) / Hind Limb Volume, Mean Diff. / Total Disease, Mean Diff.: unit not given here; settings: for % Disease Suppression / Total Disease Burden (AUC): days 8-22
Experimental: (§1) Balb C mice (n=10 per cohort) were used to determine the efficacy of Factor H (FH) during […]. The mice were treated with ArthritoMAb (anti-collagen) antibody cocktail (2 mg, i.v.) on day 1, followed 7 days later with an injection of LPS (50 μg, i.p.). On day 8, hind paw volumes were measured for each animal and distributed to various treatment groups.
Factor H was formulated in 20 mM Citrate, 150 mM NaCl, pH=6. […] Ethanercept was formulated as Enbrel™ in saline. Vehicle was formulated in 20 mM Citrate, 150 mM NaCl, pH=6. […] The dosing volume for Factor H and BX12 was 25 mL/kg (0.500 mL/20 g mouse) and adjusted accordingly for body weight.
(§2) Dosing with the different agents was started on day 8 as described in Table 3.
(§3) The age at start date was 7 to 9 weeks. Body weights were measured bi-weekly to the endpoint (Table 4). At the endpoint, tissue samples were processed for histology and submitted to a pathologist for independent analysis. Sampling 1 was performed at the endpoint. The hind limbs were preserved in 10% formalin. Sampling 2 was performed at the endpoint for group 4 animals. Blood was collected by terminal cardiac puncture. The blood was processed for anti-coagulant. The kidneys were additionally preserved in formalin and followed with 70% EtOH. Samples were scored for inflammation, pannus (granulation tissue), cartilage damage, bone resorption and exostosis (Table 5).

[2] = tested on: collagen antibody-induced arthritis; assay: Mouse CAIA: ankle histology scores (H & E); set-up: key to Score From H & E: Inflammation: 0: normal; 1: minimal infiltration of inflammatory cells in periarticular tissue; 2: mild infiltration; 3: moderate infiltration with moderate edema; 4: marked infiltration with marked edema; 5: severe infiltration with severe edema; key to Exostosis, Summary (significance) / Composite, Summary (significance) / Pannus, Summary (significance) / Cartilage, Summary (significance) / Inflammation, Summary (significance): ns: = not significant; *: = P < 0.05; **: = P < 0.01; ***: = P < 0.001; Composite Biohistopathology Score, group value / Composite Biohistopathology Score: scale not given here
Experimental: as §1, §2
as §3, with “Hind paw volumes were measured on day 8, 11, 12, 13, 15, 19 and 22 (endpoint). The age” for “The age”

[3] = tested on: collagen antibody-induced arthritis; assay: Mouse CAIA: ankle histology scores (H & E); set-up: key: 0: normal; 1: minimal; 2: mild; 3: moderate; 4: marked; 5: severe; settings: individual animal, score 0-5, endpoint day 22, listed as Group 3
Experimental: as §1, §2
as §3, with “Hind paw volumes were measured on day 8, 11, 12, 13, 15, 19 and 22 (endpoint). The age” for “The age”

[4] = tested on: collagen antibody-induced arthritis; assay: Mouse CAIA: ankle histology scores (H & E); set-up: key: 0: normal; 1: minimal infiltration of inflammatory cells in periarticular tissue; 2: mild infiltration; 3: moderate infiltration with moderate edema; 4: marked infiltration with marked edema; 5: severe infiltration with severe edema; settings: individual animal, score 0-5, endpoint day 22, listed as Group 3
Experimental: as §1, §2
as §3, with “Hind paw volumes were measured on day 8, 11, 12, 13, 15, 19 and 22 (endpoint). The age” for “The age”

[5] = tested on: collagen antibody-induced arthritis; assay: Mouse CAIA: ankle histology scores (H & E); set-up: key: 0: normal; 1: minimal to mild loss of staining density with no obvious chondrocyte loss or collagen disruption; 2: mild loss of staining density with focal mild (superficial) chondrocyte loss and/or collagen disruption; 3: moderate loss of staining density with multifocal moderate (depth to middle zone) chondrocyte loss and/or collagen disruption; 4: marked loss of staining density with multifocal marked (depth to deep zone) chondrocyte loss and/or collagen disruption; 5: severe diffuse loss of staining density with multifocal severe (depth to tide mark) chondrocyte loss and/or collagen disruption; settings: individual animal, score 0-5, endpoint day 22, listed as Group 3
Experimental: as §1, §2
as §3, with “Hind paw volumes were measured on day 8, 11, 12, 13, 15, 19 and 22 (endpoint). The age” for “The age”

[6] = Vehicle vs agent, Dunnett's Multiple Comparison Test
[7] = Vehicle vs agent, Dunn's Multiple Comparison Test
[8] = ankle, group mean ± spread, 10 animals, score 0-5
[9] = histopathology score, graded 1-5, hind limbs at endpoint, group value

Etanercept was tested, and the “Hind Limb Volume, Mean Diff.” value [1, 6] was 0.08143, the “Hind Limb Volume, Summary (significance)” value [1, 6] was “** (= P < 0.01)” and the “Total Disease, Mean Diff.” value [1, 6] was 1.19. For the same substance, the “Total Disease, Summary (significance)” value [1, 6] was “** (= P < 0.01)”, the Hind paw volume ([1]; day 8 of study, group mean, n 10) was 0.35 mL and the Hind paw volume ([1]; day 8 of study, individual animal) was 0.41 mL and 0.4 mL and 0.38 mL and 0.37 mL and 0.35 mL and 0.34 mL and 0.32 mL and 0.31 mL and 0.3 mL (2×). For the same substance, the Hind paw volume ([1]; day 11 of study, group mean, n 10) was 0.44 mL, the Hind paw volume ([1]; day 11 of study, individual animal) was 0.49 mL and 0.44 mL (2×) and 0.37 mL and 0.38 mL and 0.59 mL and 0.4 mL (2×) and 0.45 mL and 0.41 mL and the Hind paw volume ([1]; day 12 of study, group mean, n 10) was 0.44 mL. For the same substance, the Hind paw volume ([1]; day 12 of study, individual animal) was 0.58 mL and 0.44 mL and 0.35 mL and 0.42 mL and 0.46 mL and 0.49 mL and 0.45 mL and 0.39 mL (2×) and 0.4 mL, the Hind paw volume ([1]; day 13 of study, group mean, n 10) was 0.42 mL and the Hind paw volume ([1]; day 13 of study, individual animal) was 0.58 mL and 0.41 mL (2×) and 0.36 mL and 0.33 mL and 0.49 mL and 0.39 mL and 0.35 mL and 0.43 mL and 0.4 mL. For the same substance, the Hind paw volume ([1]; day 16 of study, group mean, n 10) was 0.38 mL, the Hind paw volume ([1]; day 16 of study, individual animal) was 0.45 mL and 0.46 mL and 0.34 mL and 0.37 mL and 0.43 mL and 0.41 mL and 0.33 mL (2×) and 0.32 mL and 0.3 mL and the Hind paw volume ([1]; day 19 of study, group mean, n 10) was 0.42 mL. For the same substance, the Hind paw volume ([1]; day 19 of study, individual animal) was 0.61 mL and 0.43 mL and 0.4 mL and 0.47 mL (2×) and 0.32 mL and 0.42 mL and 0.35 mL and 0.33 mL and 0.36 mL, the Hind paw volume ([1]; day 22 of study, group mean, n 10) was 0.38 mL and the Hind paw volume ([1]; day 22 of study, individual animal) was 0.55 mL and 0.41 mL (2×) and 0.34 mL (2×) and 0.39 mL and 0.36 mL (3×) and 0.32 mL. The “% Disease Suppression” value ([1]; group mean, n 10) was 61.66%, the “Total Disease Burden (AUC)” value ([1]; group mean, n 10) was 0.74 and the “% Disease Suppression” value ([1]; individual animal) was 16.3% and 74.3% and 109.8% and 81.9% and 52.3% and 49.7% and 69.4% and 70.2% and 29.0% and 63.7%. The “Total Disease Burden (AUC)” value ([1]; individual animal) was 1.62 and 0.58 (2×) and −0.19 and 0.35 and 0.92 and 0.97 and 0.59 and 1.37 and 0.70, the “Maximum Δ Mean Volume” value ([1]; difference between mean combined foot pad volumes on day 8 and on median day of maximal swelling, vehicle 0.21) was 0.13** ml and the “Mean Disease Burden” value ([1]; group mean AUC of combined footpad volume over baseline, days 8 to 22, vehicle 1.93) was 0.74**. The “% Disease Suppression (vs Vehicle)” value ([1]; percent decrease in total disease burden relative to vehicle) was 61.7%, the “Cartilage, Difference in rank sum” value [2, 7] was −1.5 and the “Cartilage, Summary (significance)” value [2, 7] was “ns”. The “Composite, Difference in rank sum” value [2, 7] was 2.1, the “Composite, Summary (significance)” value [2, 7] was “ns” and the “Exostosis, Difference in rank sum” value [2, 7] was 5.8. The “Exostosis, Summary (significance)” value [2, 7] was “ns”, the “Inflammation, Difference in rank sum” value [2, 7] was 3.6 and the “Inflammation, Summary (significance)” value [2, 7] was “ns”. The “Pannus, Difference in rank sum” value [2, 7] was 0.3, the “Pannus, Summary (significance)” value [2, 7] was “ns” and the “Composite Biohistopathology Score, group value” ([2]; ankle, group mean ± spread, 10 animals) was 6.0 ± 2.1. For the same substance, the “Score From H & E: Bone Resorption, group value” [2, 8] was 1.0 ± 0.4, the “Score From H & E: Cartilage Damage, group value” [2, 8] was 0.7 ± 0.3 and the “Score From H & E: Inflammation, group value” [2, 8] was 1.5 ± 0.5. For the same substance, the “Score From H & E: Pannus, group value” [2, 8] was 1.4 ± 0.5, the “Score From H & E: Periosteal/Exostotic Changes, group value” [2, 8] was 1.4 ± 0.6 and the “Composite Biohistopathology Score” value ([2]; ankle, individual animal, endpoint day 22, listed as Group 3) was 11 (2×) and 0 (4×) and 16 and 15 and 1 and 4. The “Score From H & E: Inflammation” value ([2]; ankle, individual animal, score 0-5, endpoint day 22, listed as Group 3) was 3 (4×) and 0 (4×) and 1 and 2, the “Composite Score” value ([2]; histopathology composite, hind limbs at endpoint, group value) was 6.0 ± 2.1^ns and the “Bone Resorption” value [2, 9] was 1.0 ± 0.4^ns. The “Cartilage Damage” value [2, 9] was 0.7 ± 0.3^ns, the Exostosis [2, 9] was 1.4 ± 0.6^ns and the Inflammation [2, 9] was 1.5 ± 0.5^ns. For the same substance, the Pannus [2, 9] was 1.4 ± 0.5^ns, the “Score From H & E: Bone Resorption” value [3] was 1 and 3 (3×) and the “Score From H & E: Periosteal/Exostotic Changes” value [3] was 4 (2×) and 3 (2×). For the same substance, the “Score From H & E: Bone Resorption” value [4] was 0, the “Score From H & E: Cartilage Damage” value [4] was 0 and the “Score From H & E: Pannus” value [4] was 2 (3×) and 0 (5×). For the same substance, the “Score From H & E: Periosteal/Exostotic Changes” value [4] was 0 and the “Score From H & E: Cartilage Damage” value [5] was 1 (3×) and 2 (2×).
